{"source": "patent US20260027119A1", "about": "“INHIBITORS OF CALCIUM/CALMODULIN-DEPENDENT PROTEIN KINASE II AND THEIR USES” (priority 2022, published 2026)", "key": {"[1]": {"system": "constitutively active human CaMKIIδ (cardiac isoform)", "assay": "High-throughput CaMKAR screen in stable human cell line expressing CaMKAR and constitutively active human CaMKIIδ", "assay_type": "cell-based", "text": "(§1) FIG. 1A, FIG. 1B, FIG. 1C, and FIG. 1D show high-throughput screening to identify CaMKII inhibitors. A stable human cell line that expresses CaMKAR and constitutively active human CaMKIIδ (cardiac isoform) was developed. […] In these cells, the JHDLv3 library, which contains 4,475 compounds that are approved for human use, was screened (FIG. 1B). This primary screen identified 118 candidate compounds, which were subscreened using a CaMKAR in vitro assay (FIG. 1C). Validation of these hits in HEK293 cells and by a third-party laboratory led to five potent inhibitors.\n(§2) In some embodiments, the presently disclosed subject matter provides a CaMKII activity biosensor, referred to herein as a CaMKII Activity Reporter (CaMKAR), that is tractable for high-throughput screens. Using this sensor, a library of compounds that are safe for human use (i.e., Food and Drug Administration (FDA)-, European Medicines Agency (EMA)-, China Food and Drug Administration (CFDA)-, and Pharmaceuticals and Medical Devices Agency (PMDA)-approved compounds) was screened for previously unidentified CaMKII inhibitors."}, "[2]": {"system": "constitutively active CaMKIIδ", "assay": "CaMKII inhibition in HEK293 cells expressing constitutively active CaMKIIδ", "assay_type": "cell-based", "text": "as §1"}, "CaMKII [3]": {"system": "CaMKII", "assay": "CaMKII activation in cardiomyocytes stimulated by field pacing (simulated tachycardia)", "assay_type": "cell-based", "text": "FIG. 4A, FIG. 4B, and FIG. 4C show compounds that inhibit CaMKII in cardiomyocytes. CaMKII is stimulated in cardiac cells by simulating tachycardia with field pacing. […] When drug concentration is adjusted to match their respective maximum human plasma concentration, four out of the five compounds were able to ameliorate CaMKII (FIG. 4B, FIG. 4C).\nas §2"}, "CaMKII [4]": {"target": "CaMKII (Homo sapiens, UniProt Q13557)", "sequence (Q13557 whole entry)": "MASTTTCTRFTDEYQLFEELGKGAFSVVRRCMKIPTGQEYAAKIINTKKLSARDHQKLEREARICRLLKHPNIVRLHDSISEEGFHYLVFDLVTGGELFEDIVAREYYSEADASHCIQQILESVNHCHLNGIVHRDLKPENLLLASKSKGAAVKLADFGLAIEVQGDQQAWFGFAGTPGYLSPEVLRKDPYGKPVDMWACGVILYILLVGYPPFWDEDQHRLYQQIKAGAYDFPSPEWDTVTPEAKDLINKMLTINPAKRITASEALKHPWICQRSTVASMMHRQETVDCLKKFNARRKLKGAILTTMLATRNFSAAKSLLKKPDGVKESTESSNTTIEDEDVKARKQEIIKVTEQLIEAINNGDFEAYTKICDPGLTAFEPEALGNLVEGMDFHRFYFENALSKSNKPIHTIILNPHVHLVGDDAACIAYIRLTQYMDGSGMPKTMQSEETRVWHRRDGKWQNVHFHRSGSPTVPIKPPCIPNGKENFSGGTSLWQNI", "assay": "CaMKAR in vitro assay (subscreen of primary hits)", "assay_type": "biochemical", "text": "as §1"}}}
{"smiles": "CCS(=O)(=O)N1CC(CC#N)(n2cc(-c3ncnc4[nH]ccc34)cn2)C1", "note": "[Baricitinib]", "values": [{"measurement": "Inhibition of cardiac CaMKII (CaMKIIδ) in human cells", "setting": "[1]; human cells", "value": "potently inhibited"}, {"measurement": "Potency of CaMKII inhibition relative to tool inhibitor AS100397", "setting": "[2]", "value": "more potent"}, {"measurement": "CaMKII activity in rat cardiac cells", "setting": "CaMKII [3]", "value": "prevented CaMKII activity"}]}
{"smiles": "CN[C@@H]1C[C@H]2O[C@@](C)([C@@H]1OC)n1c3ccccc3c3c4c(c5c6ccccc6n2c5c31)C(=O)NC4", "note": "[Staurosporine]", "values": [{"measurement": "CaMKII inhibition reported by CaMKAR in primary screen cell line", "setting": "[1]; stable human cell line expressing CaMKAR and constitutively active human CaMKIIδ", "value": "recovered"}, {"measurement": "CaMKII inhibition in CaMKAR in vitro assay", "setting": "CaMKII [4]", "value": "recovered"}]}
